Consider 23 molecules from patent publication US7018981B2, “Cyclic motilin receptor antagonists” (Chugai Seiyaku Kabushiki Kaisha, priority 2000, dated 2006).

pIC50: −log10 of the molar value. Read-outs that look alike come from different tables or passages of the source. Where a SMILES comes first, the peptide text is derived from it. Bridges are numbered along the chain shown (N, C = ends). [ ]: non-standard residue; d: D form. Tyr(3-tBu) = CC(C)(C)c1cc(C[CH](N)C(=O)O)ccc1O; βAla = NCCC(=O)O

The conditions of series [1]: amide bond, BOP, 25.0 °C.
For series [2] the following is noted: amide bond, 25.0 °C.
Series [3] concerns the target T1, motilin receptors (Oryctolagus cuniculus, UniProt G1T803).
T1 construct: A protein solution was prepared by homogenizing the duodenum isolated from a killed rabbit; from tissue; host or cells: rabbit duodenum, mucosa stripped, homogenate
Put plainly: Motilin receptor binding test (125I motilin, rabbit duodenum protein solution). To be noted: concentration inhibiting 50% of specific binding of 25 pM 125I motilin; rabbit duodenum homogenate, 2 hours at 25° C. Here is the method:
Motilin receptor binding activities of compounds of the present invention were tested as follows [Vantrappen et al., Regul.
A protein solution was prepared by homogenizing the duodenum isolated from a killed rabbit in 50 mM Tris after stripping the mucosa. […] The difference between the radioactivity of the protein solution incubated alone and the radioactivity of the protein solution incubated with a large excess of motilin (10^−7 M) was recorded as specific binding of motilin to motilin receptors.

For series [4], the system named is motilin-induced contraction of a sample of the longitudinal muscle of the duodenum. Put plainly: Contraction inhibition test: motilin-induced contraction of rabbit longitudinal duodenal muscle. The format is cell-based. The note with it: Oryctolagus cuniculus; concentration-dependent contraction induced by motilin; rabbit duodenal specimen in Krebs solution at 28° C.; read-out: Contraction inhibition test pA2 (converted). Here is the method:
The effect of compounds of the present invention on motilin-induced contraction of a sample of the longitudinal muscle of the duodenum extracted from a rabbit was tested as follows.
A duodenal specimen (5×15 mm) extracted from a killed rabbit was suspended in the direction of the longitudinal muscle in an incubator at 28° C. filled with Krebs solution (10 ml organ bath). A mixed gas (95% O2, 5% CO2) was continuously passed through the Krebs solution and the contraction of the duodenal specimen was isotonically recorded (under a load of 1 g) via an isotonic transducer (ME-3407, ME Commercial, Tokyo, Japan). The extent of contraction of the duodenal specimen was expressed as a percentage to the contraction induced by acetylcholine at a concentration of 10^−4 M.
The effect of the compounds synthesized in Examples 1–8 and 10 on the concentration-dependent contraction induced by motilin added into the incubator was determined to calculate pA2 (see “Drug receptors” edited by Takayanagi, published by Nanzando). As a comparative example, the results of the compound of formula (5) are also shown.

Setting [5] is: 14-membered ring, BOP, DMF/pyridine 1:1, 9.9 mM, 2 steps.

T1 sequence (G1T803 1-400): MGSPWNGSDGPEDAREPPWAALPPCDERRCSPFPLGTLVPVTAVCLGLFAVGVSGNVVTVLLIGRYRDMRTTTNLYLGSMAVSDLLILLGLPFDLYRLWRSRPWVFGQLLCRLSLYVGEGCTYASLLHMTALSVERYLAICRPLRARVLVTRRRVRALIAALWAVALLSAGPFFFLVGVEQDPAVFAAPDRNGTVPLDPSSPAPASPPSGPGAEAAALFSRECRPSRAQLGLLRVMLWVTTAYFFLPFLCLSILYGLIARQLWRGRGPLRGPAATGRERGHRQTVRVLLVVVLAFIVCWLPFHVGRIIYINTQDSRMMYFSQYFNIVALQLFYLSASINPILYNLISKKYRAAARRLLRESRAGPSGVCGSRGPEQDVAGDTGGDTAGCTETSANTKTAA

In turn, `CC(=O)N1CCCC[C@H](N(C)C(=O)[C@H](Cc2ccc(F)cc2)NC(=O)OC(C)(C)C)C(=O)N[C@@H](Cc2ccc(O)c(C(C)(C)C)c2)C(=O)NCCC1` returned a ring closure, yield of all isomers in series [1] (from CC(=O)N(CCCN)CCCC[C@@H](C(=O)N[C@@H](Cc1ccc(O)c(C(C)(C)C)c1)C(=O)O)N(C)C(=O)[C@H](Cc1ccc(F)cc1)NC(=O)OC(C)(C)C, DMF, 9.87 mM, 18.0 h) of 55%.
`CC(C)(C)c1cc(C[C@@H]2NC(=O)C(N)CCCCNC(=O)CCNC2=O)ccc1O` (stereo partly drawn): in series [2] (from Z-Lys-Tyr(3-tBu)-bAla-OH?, 14-membered ring, BOP/pyridine, MeCN/pyridine 1:1, 10.2 mM, 3 steps), the ring closure, isolated yield turned out to be 90%.
`CC(C)(C)c1cc(C[C@@H]2NC(=O)[C@@H](N)CCCCNC(=O)CCNC2=O)ccc1O` displayed a ring closure, yield of all isomers in series [1] (from CC(C)(C)OC(=O)CCNC(=O)[C@H](Cc1ccc(O)c(C(C)(C)C)c1)NC(=O)[C@H](CCCCNC(=O)OC(C)(C)C)NC(=O)OCc1ccccc1, acetonitrile, 10.2 mM, 21.0 h, 3 steps) of 90%.
As to `CN(C(=O)[C@H](Cc1ccc(F)cc1)NC(=O)OC(C)(C)C)[C@H]1CCCCNC(=O)CCCNC(=O)[C@H](Cc2ccc(O)c(C(C)(C)C)c2)NC1=O`, the ring closure, yield of all isomers in series [1] (from CN(C(=O)[C@H](Cc1ccc(F)cc1)NC(=O)OC(C)(C)C)[C@@H](CCCCN)C(=O)N[C@@H](Cc1ccc(O)c(C(C)(C)C)c1)C(=O)NCCCC(=O)O, DMF, 10.1 mM, 16.0 h) was found to be 82%.
On to `CN(C(=O)[C@H](Cc1ccc(F)cc1)NC(=O)OC(C)(C)C)[C@H]1CCCCNC(=O)CCNC(=O)[C@H](Cc2ccc(O)c(C(C)(C)C)c2)N(C)C1=O`, for which the ring closure, yield of all isomers in series [1] (from CN(C(=O)[C@H](Cc1ccc(F)cc1)NC(=O)OC(C)(C)C)[C@@H](CCCCN)C(=O)N(C)[C@@H](Cc1ccc(O)c(C(C)(C)C)c1)C(=O)NCCC(=O)O, DMF, 10.0 mM, 26.0 h, 2 steps) was 36%.
Consider `CN(C(=O)[C@H](Cc1ccc(F)cc1)NC(=O)OC(C)(C)C)[C@H]1CCCCNC(=O)CCNC(=O)[C@H](Cc2ccc(O)c(C(C)(C)C)c2)NC1=O`, for which the ring closure, yield of all isomers in series [1] (from CN(C(=O)[C@H](Cc1ccc(F)cc1)NC(=O)OC(C)(C)C)[C@@H](CCCCN)C(=O)N[C@@H](Cc1ccc(O)c(C(C)(C)C)c1)C(=O)NCCC(=O)O, DMF, 10.1 mM, 18.0 h) worked out at 69%.
`CN(C(=O)[C@H](Cc1ccc(F)cc1)NC(=O)OC(C)(C)C)[C@H]1CCCCNC(=O)CNC(=O)[C@H](Cc2ccc(O)c(C(C)(C)C)c2)NC1=O` returned a ring closure, yield of all isomers in series [1] (from CN(C(=O)[C@H](Cc1ccc(F)cc1)NC(=O)OC(C)(C)C)[C@@H](CCCCN)C(=O)N[C@@H](Cc1ccc(O)c(C(C)(C)C)c1)C(=O)NCC(=O)O, DMF, 10.75 mM, 23.0 h, 2 steps) of 60%.
For the molecule `CN(C(=O)[C@H](Cc1ccccc1)NC(=O)OCc1ccccc1)[C@H]1CCCCNC(=O)CCNC(=O)[C@H](Cc2ccc(O)c(C(C)(C)C)c2)NC1=O`, the ring closure, yield of all isomers in series [1] (from CN(C(=O)[C@H](Cc1ccccc1)NC(=O)OCc1ccccc1)[C@@H](CCCCN)C(=O)N[C@@H](Cc1ccc(O)c(C(C)(C)C)c1)C(=O)NCCC(=O)O, DMF, 9.91 mM, 2 steps) was found to be 48%.
For `CN1CCC(=O)NCCCC[C@H](N(C)C(=O)[C@H](Cc2ccc(F)cc2)NC(=O)OC(C)(C)C)C(=O)N[C@@H](Cc2ccc(O)c(C(C)(C)C)c2)C1=O`, in series [1] (from CN(CCC(=O)O)C(=O)[C@H](Cc1ccc(O)c(C(C)(C)C)c1)NC(=O)[C@H](CCCCN)N(C)C(=O)[C@H](Cc1ccc(F)cc1)NC(=O)OC(C)(C)C, DMF, 10.3 mM, 16.0 h), the ring closure, yield of all isomers worked out at 60%.
In series [1] (from CNCCCC[C@@H](C(=O)N[C@@H](Cc1ccc(O)c(C(C)(C)C)c1)C(=O)NCCC(=O)O)N(C)C(=O)[C@H](Cc1ccc(F)cc1)NC(=O)OC(C)(C)C, DMF, 10.5 mM, 16.0 h), `CN1CCCC[C@H](N(C)C(=O)[C@H](Cc2ccc(F)cc2)NC(=O)OC(C)(C)C)C(=O)N[C@@H](Cc2ccc(O)c(C(C)(C)C)c2)C(=O)NCCC1=O` displayed a ring closure, yield of all isomers of 36%.
The molecule `CN1CCC[C@H](N(C)C(=O)[C@H](Cc2ccc(F)cc2)NC(=O)OC(C)(C)C)C(=O)N[C@@H](Cc2ccc(O)c(C(C)(C)C)c2)C(=O)NCCCC1=O` displayed a ring closure, yield of all isomers in series [1] (from CNCCC[C@@H](C(=O)N[C@@H](Cc1ccc(O)c(C(C)(C)C)c1)C(=O)NCCCC(=O)O)N(C)C(=O)[C@H](Cc1ccc(F)cc1)NC(=O)OC(C)(C)C, DMF, 9.93 mM, 12.0 h, 2 steps) of 60%.
Molecule “2S-(2S,13S))-N-(8-acetyl-2-(3-tert-butyl-4-hydroxyphenylmethyl)-3,14-dioxo-1,4,8-triazacyclotetradec-13-yl)-2-tert-butoxycarbonylamino-3-(4-fluorophenyl)-N-methylpropionamide” returned a ring closure, isolated yield in series [2] (14-membered ring, BOP/pyridine, DMF/pyridine 1:1, 9.9 mM) of 55%.
As usually defined, the pIC50 is the negative decadic logarithm of the IC50, by convention in mol/L. A high value points to a low IC50. In series [3], `CC(C)(C)c1cc(CC2NC(=O)C(NC(=O)C(N)Cc3ccccc3)CCCCNC(=O)CCNC2=O)ccc1O` (stereo not drawn) [Comparative example, reference compound] (H-FK[Tyr(3-tBu)][βAla]; lactam 2-C; configuration not given here) had a pIC50 of 8.00. Further, in series [4], the Kb is 63.1 nM.
Consider `CN1CCC[C@H](N(C)C(=O)[C@@H](N)Cc2ccc(F)cc2)C(=O)N[C@@H](Cc2ccc(O)c(C(C)(C)C)c2)C(=O)NCCCC1=O` [Example 9, (2S-(2S,13S))-2-amino-N-(2-(3-tert-butyl-4-hydroxyphenylmethyl)-9,N-dimethyl-1,4,9-triaza-3,8,14-trioxocyclotetradec-13-yl)-3-(4-fluorophenyl)propionamide], for which the pIC50 in series [3] was 8.28.
“(2S-(2S,12S))-2-tert-butoxycarbonylamino-N-(2-(3-tert-butyl-4-hydroxyphenylmethyl)-1,4,8-triaza-3,7,13-trioxocyclotridec-12-yl)-3-(4-fluorophenyl)-N-methylpropionamide” yielded a ring closure, isolated yield in series [2] (13-membered ring, BOP/pyridine, DMF/pyridine 1:1, 10.75 mM, 2 steps) of 60%.
With “(2S-(2S,13S))-2-(tert-butoxycarbonylamino)-N-(2-(3-tert-butyl-4-hydroxyphenylmethyl)-8-methyl-1,4, 8-triaza-3,7,14-trioxocyclotetradec-13-yl)-3-(4-fluorophenyl)-N-methylpropionamide”, the ring closure, isolated yield in series [2] (14-membered ring, BOP/pyridine, DMF/pyridine 1:1, 10.5 mM) is 36%.
In series [2] (setting [5]), “(2S-(2S,13S))-2-benzyloxycarbonylamino-N-(2-(3-tert-butyl-4-hydroxyphenylmethyl)-1,4,8-triaza-3,7,14-trioxocyclotetradec-13-yl)-3-phenyl-N-methylpropionamide” registered a ring closure, isolated yield of 48%.
Take “(2S-(2S,13S))-2-tert-butoxycarbonylamino-N-(2-(3-tert-butyl-4-hydroxyphenylmethyl)-1,4,8-triaza-3,7,14-trioxocyclotetradec-13-yl)-3-(4-fluorophenyl)-N-methylpropionamide”: in series [2] (14-membered ring, BOP/pyridine, DMF/pyridine 1:1, 10.1 mM), the ring closure, isolated yield was 69%.
With “(2S-(2S,13S))-2-tert-butoxycarbonylamino-N-(2-(3-tert-butyl-4-hydroxyphenylmethyl)-1-methyl-1,4,8-triaza-3,7,14-trioxocyclotetradec-13-yl)-3-(4-fluorophenyl)-N-methylpropionamide”, the ring closure, isolated yield in series [2] (14-membered ring, BOP/pyridine, DMF/pyridine 1:1, 10.0 mM, 2 steps) was determined as 36%.
Take “(2S-(2S,13S))-2-tert-butoxycarbonylamino-N-(2-(3-tert-butyl-4-hydroxyphenylmethyl)-4-methyl-1,4,8-triaza-3,7,14-trioxocyclotetradec-13-yl)-3-(4-fluorophenyl)-N-methylpropionamide”: the ring closure, isolated yield in series [2] (14-membered ring, BOP/pyridine, DMF/pyridine 1:1, 10.3 mM) came to 60%.
In turn, “(2S-(2S,13S))-2-tert-butoxycarbonylamino-N-(2-(3-tert-butyl-4-hydroxyphenylmethyl)-9-methyl-1,4,9-triaza-3,8,14-trioxocyclotetradec-13-yl)-3-(4-fluorophenyl)-N-methylpropionamide” registered a ring closure, isolated yield in series [2] (setting [5]) of 60%.
On to “(2S-(2S,13S))-N-(8-acetyl-2-(3-tert-butyl-4-hydroxyphenylmethyl)-3,14-dioxo-1,4,8-triazacyclotetradec-13-yl)-2-tert-butoxycarbonylamino-3-(4-fluorophenyl)-N-methylpropionamide”, for which the ring closure, isolated yield in series [2] (14-membered ring, BOP, DMF/pyridine 1:1, 9.9 mM) came to 55%.
In turn, “(2S-(2S,14S))-2-(tert-butoxycarbonylamino)-N-(2-(3-tert-butyl-4-hydroxyphenylmethyl)-1,4,9-triaza-3,8,15-trioxocyclopentadec-14-yl)-3-(4-fluorophenyl)-N-methylpropionamide” registered a ring closure, isolated yield in series [2] (15-membered ring, BOP/pyridine, DMF/pyridine 1:1, 10.1 mM) of 82%.
